Reference: ChEMBL document CHEMBL4138293, “Modified Abietane Diterpenoids from Whole Plants of Selaginella moellendorffii” (J Nat Prod, 2018)
The source made the active and inactive calls. The rule behind the calls is not given here.

Assays:
Type in all cases: functional, cell-based
MCF7 = test: Growth inhibition of human MCF7 cells after 48 hrs by MTS assay
SMMC-7721 = test: Growth inhibition of human SMMC7721 cells after 48 hrs by MTS assay
SW480 = test: Growth inhibition of human SW480 cells after 48 hrs by MTS assay
HL-60 = test: Growth inhibition of human HL60 cells after 48 hrs by MTS assay
A549 = test: Growth inhibition of human A549 cells after 48 hrs by MTS assay

Row | IC50 (MCF7; MCF7, 48 h) | IC50 (SMMC-7721; SMMC-7721, 48 h) | IC50 (SW480; SW480, 48 h) | IC50 (HL-60; HL-60, 48 h) | Structure (SMILES) | growth inhibition (GI) (SMMC-7721) | growth inhibition (GI) (SW480) | growth inhibition (GI) (HL-60) | growth inhibition (GI) (A549) | growth inhibition (GI) (MCF7)
1 | 9000 nM | – | – | – | C=C1[C@@H]2CC(=O)c3cc(C(C)C)c(O)cc3[C@@]2(C)CC(=O)[C@]12CCC1=C(C2)[C@@H]2CC(=O)c3cc(C(C)C)c(O)cc3[C@@]2(C)C[C@@H]1O | inactive | inactive | inactive | inactive | –
2 | – | – | – | – | CC(C)c1cc2c(cc1O)[C@@]1(C)CC[C@](C)(O)[C@@](O)(CO)[C@@H]1CC2=O | inactive | inactive | inactive | inactive | inactive
3 | – | – | – | – | C=C1[C@@H]2CC(=O)c3cc(C(C)C)c(O)cc3[C@@]2(C)CC(=O)[C@]12CCC1=C(C2)C2=CC(=O)c3cc(C(C)C)c(O)cc3[C@@]2(C)C[C@@H]1O | inactive | inactive | inactive | inactive | inactive
4 | – | < 8 nM | < 8 nM | < 8 nM | CC(=O)O[C@H]1C(=O)[C@@]2(C)[C@H]([C@H](OC(=O)c3ccccc3)[C@]3(O)C[C@H](OC(=O)[C@H](O)[C@@H](NC(=O)c4ccccc4)c4ccccc4)C(C)=C1C3(C)C)[C@]1(OC(C)=O)CO[C@@H]1C[C@@H]2O [PACLITAXEL] | – | – | – | – | –
